Read-outs that look alike come from different tables or passages of the source.
Columns and labels:
Format in all cases: in vivo, Mycosphaerella graminicola on wheat plants (variety Yuma)
[1] = system: Mycosphaerella graminicola; Anamorph: Septoria tritici; Bayer Code SEPTTR (standard laboratory isolate, SI SEPTTR); experiment: Type A (high volume) assay, leaf blotch of wheat, standard laboratory SEPTTR isolate (SI SEPTTR); details: Zymoseptoria tritici, standard laboratory isolate, high volume, 50 ppm, wheat (Yuma)
Summary of the method: (§1)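 Wheat seedlings (Yuma, first leaf emerged) sprayed with acetone/Triton X-100 solutions (Type A) or 10% EC diluted in 0.1% Trycol at 200 L/ha (Type B), inoculated before or after spraying. Inoculated plants held 3 days at 20 °C, 100% RH, then greenhouse; % disease control from severity versus untreated plants.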

[2] = system: Mycosphaerella graminicola; Anamorph: Septoria tritici; Bayer Code SEPTTR (standard laboratory isolate, SI SEPTTR); experiment: Type B (low volume, EC formulation, track sprayer 200 L/ha) assay, leaf blotch of wheat, standard laboratory SEPTTR isolate (SI SEPTTR); details: Zymoseptoria tritici, 72 h, standard laboratory isolate, low volume EC, 100 g/ha, wheat (Yuma)
Experimental: Example A: Evaluation of Fungicidal Activity: Leaf Blotch of Wheat (Mycosphaerella graminicola; Anamorph: Septoria tritici; Bayer Code SEPTTR)
For Type A assays, technical grades of the experimental fungicides in Table 4 below were dissolved in acetone, and then mixed with nine volumes of water containing 110 ppm Triton X-100. The fungicide solutions were applied onto wheat seedlings using an automated booth sprayer. For Type B assays, emulsifiable concentrate (EC) formulations of technical grades of the experimental fungicides in Table 4 below were prepared at 10% (w/v), and then mixed with 150 volumes of 0.1% Trycol 5941. These solutions were applied onto wheat seedlings using an automated track sprayer at 200 L/ha. All sprayed plants were allowed to air dry prior to further handling.
Wheat plants (variety Yuma) were grown from seed in a greenhouse in 50% mineral soil/50% soil-less Metro mix until the first leaf was fully emerged, with 7-10 seedlings per pot. Prior to or after application of experimental fungicides, plants were inoculated either with spores of a standard laboratory SEPTTR isolate (SI SEPTTR) or with spores from a SEPTTR field isolate collected from Wellsbourne, England in 2012 (FI SEPTTR). After inoculation the plants were kept for 3 days at 20° C. in 100% relative humidity (one day in a dark dew chamber followed by two days in a lighted dew chamber). Plants were then transferred to a 20° C. greenhouse for disease development. When disease symptoms were fully expressed on untreated plants, infection levels on treated plants were assessed on a scale of 0 to 100 percent disease severity. Percent disease control was calculated using the ratio of disease severity on treated plants relative to untreated plants.

[3] = Type B (low volume, EC formulation, track sprayer 200 L/ha) assay, leaf blotch of wheat, SEPTTR field isolate (FI SEPTTR); details: Zymoseptoria tritici, 72 h, field isolate, low volume EC, 100 g/ha, wheat (Yuma)
Summary of the method: as §1

[4] = 24 h, 1 Day Protectant, read-out: Disease Control, SI SEPTTR Type A Assay (50 ppm) 1 DP
[5] = 3 Day Curative, read-out: Disease Control, SI SEPTTR Type B Assay (100 g/ha) 3 DC
[6] = 3 Day Protectant, read-out: Disease Control, SI SEPTTR Type B Assay (100 g/ha) 3 DP
[7] = 3 Day Curative, read-out: Disease Control, FI SEPTTR Type B Assay (100 g/ha) 3 DC
[8] = 3 Day Protectant, read-out: Disease Control, FI SEPTTR Type B Assay (100 g/ha) 3 DP
[9] = 72 h, 3 Day Curative, read-out: Disease Control, SI SEPTTR Type A Assay (50 ppm) 3 DC

Row | Compound | pest or weed control at 50 ppm [1, 4] [%] | pest or weed control at 100 g/ha [2, 5] [%] | pest or weed control at 100 g/ha [2, 6] [%] | pest or weed control at 100 g/ha [3, 7] [%] | pest or weed control at 100 g/ha [3, 8] [%] | pest or weed control at 50 ppm [1, 9] [%]
1 | Cc1cc(C2(C#N)CC2)ccc1-c1ccc(C(O)(c2cncnc2)C(C)(C)C)nc1 (stereo not shown) [Compound 158] | 80 to 100 | 80 to 100 | 80 to 100 | 80 to 100 | 80 to 100 | 
2 | CC(C)(C)C(O)(c1cccnc1)c1ccc(-c2ccc(C3(C#N)CC3)cc2)cn1 (stereo not shown) [Compound 145] | 80 to 100 | 80 to 100 | 60 to 79 | 80 to 100 | 80 to 100 | 
3 | Cc1ncc(C(O)(c2ccc(-c3ccc(OC(F)(F)F)cc3)cn2)C(C)(C)C)cn1 (stereo not shown) [Compound 83] | 40 to 59 | < 40 | 40 to 59 | 80 to 100 | 40 to 59 | 
4 | OC(c1cncnc1)(c1ccc(Oc2ccc(Cl)cn2)cn1)C1CC1 (stereo not shown) [Compound 14] | 80 to 100 | 60 to 79 | 60 to 79 | 40 to 59 | 60 to 79 | 80 to 100
5 | CC(C)(C)C(O)(c1cncnc1)c1ccc(-c2ccc(C3(C#N)CC3)cc2)cn1 (stereo not shown) [Compound 105] | 80 to 100 | 80 to 100 | 80 to 100 | 80 to 100 | 80 to 100 | 
6 | CC(C)(C)C(O)(c1cncnc1)c1ccc(-c2ccc(SC(F)(F)F)cc2)cn1 (stereo not shown) [Compound 125] | 80 to 100 | 80 to 100 | 80 to 100 | 80 to 100 | 60 to 79 | 
7 | COc1ccc(-c2ccc(C(O)(c3cncnc3)C(C)(C)C)nc2)cc1 (stereo not shown) [Compound 95] | 80 to 100 | 80 to 100 | 80 to 100 | 80 to 100 | 80 to 100 | 
8 | CC(C)(C)C(O)(c1cncnc1)c1ccc(-c2ccc(OC(F)(F)F)c(F)c2)cn1 (stereo not shown) [Compound 106] | 80 to 100 | 80 to 100 | 80 to 100 | 80 to 100 | 80 to 100 | 
9 | CCC(C)(C)C(O)(Cc1cncnc1)c1ccc(-c2ccc(Cl)cc2)cn1 (stereo not shown) [Compound 57] | 80 to 100 | 80 to 100 | 80 to 100 | < 40 | < 40 | 80 to 100
10 | CC(C)(C)C(O)(c1cncnc1)c1ccc(-c2ccc(F)cc2)cn1 (stereo not shown) [Compound 115] | 80 to 100 | 80 to 100 | 80 to 100 | 80 to 100 | 80 to 100 | 
11 | CC(C)(C)C(O)(Cc1cncnc1)c1ccc(-c2ccc(Cl)cc2)cn1 (stereo not shown) [Compound 51] | 80 to 100 | 40 to 59 | 60 to 79 | 60 to 79 | 60 to 79 | 80 to 100
12 | OC(c1cccnc1)(c1ccc(-c2ccc(OC(F)(F)F)cc2)cn1)c1ccc(F)cc1F (stereo not shown) [Compound 91] | 80 to 100 | 60 to 79 | 80 to 100 | 40 to 59 | 80 to 100 | 
13 | CCC(C)(C)C(O)(c1cncnc1)c1ccc(-c2ccc(OC(F)(F)F)cc2)cn1 (stereo not shown) [Compound 93, 2,2-dimethyl-1-pyrimidin-5-yl-1-[5-[4-(trifluoromethoxy)phenyl]-2-pyridyl]butan-1-ol] | 80 to 100 | 80 to 100 | 80 to 100 | 60 to 79 | 80 to 100 | 
14 | CC(C)(C)C(O)(c1cncnc1)c1ccc(-c2ccc(Cl)cc2)cn1 (stereo not shown) [Compound 65] | 80 to 100 | 80 to 100 | 80 to 100 | 60 to 79 | 60 to 79 | 
15 | Cc1cc(-c2ccc(CC(F)(F)F)nc2)cnc1C(O)(c1cncnc1)C(C)(C)C (stereo not shown) [Compound 131] | 80 to 100 | 80 to 100 | 60 to 79 | 60 to 79 | 60 to 79 | 
16 | CC(C)(C)C(O)(Cc1cncnc1)c1ccc(-c2ccc(OC(F)(F)F)cc2)cn1 (stereo not shown) [Compound 74] | 80 to 100 | 80 to 100 | 80 to 100 | 40 to 59 | < 40 | 
17 | OC(c1cncnc1)(c1ccc(Oc2ccc(C(F)(F)F)cc2)cn1)C1CC1 (stereo not shown) [Compound 17] | 80 to 100 | 80 to 100 | 80 to 100 | 60 to 79 | 60 to 79 | 80 to 100
18 | CC(C)(C)c1ccc(-c2ccc(C(O)(c3cncnc3)C(C)(C)C)nc2)cc1 (stereo not shown) [Compound 97] | 80 to 100 | 80 to 100 | 80 to 100 | 80 to 100 | 80 to 100 | 
19 | CC(C)(C)C(O)(c1cncnc1)c1ccc(-c2ccccc2)cn1 (stereo not shown) [Compound 114] | 60 to 79 | 80 to 100 | 80 to 100 | 80 to 100 | 60 to 79 | 
20 | Cc1cc(-c2ccc(C(O)(c3cncnc3)C(C)(C)C)nc2)ccc1OC(F)(F)F (stereo not shown) [Compound 116] | 60 to 79 | 80 to 100 | 80 to 100 | 80 to 100 | 60 to 79 | 
21 | OC(c1cncnc1)(c1ccc(-c2ccc(OC(F)F)cc2)cn1)C1CC1 (stereo not shown) [Compound 60] | 80 to 100 | 80 to 100 | 80 to 100 | < 40 | 60 to 79 | 80 to 100
22 | CC(C)(C)C(O)(c1cncnc1)c1ccc(-c2ccc(C#N)cc2)cn1 (stereo not shown) [Compound 88] | 80 to 100 | 80 to 100 | 80 to 100 | 80 to 100 | 80 to 100 | 
23 | CC(C)(C)C(O)(c1cncnc1)c1ccc(-c2ccccc2OC(F)(F)F)cn1 (stereo not shown) [Compound 104] | 80 to 100 | 80 to 100 | 80 to 100 | < 40 | 80 to 100 | 
24 | CC(C)(C)C(O)(c1cncnc1)c1ccc(-c2ccc(OC3CC3)cc2)cn1 (stereo not shown) [Compound 102] | 80 to 100 | 80 to 100 | 80 to 100 | 80 to 100 | 80 to 100 | 
25 | CC(C)C(O)(Cc1cncnc1)c1ccc(-c2ccc(Cl)cc2)cn1 (stereo not shown) [Compound 38] | 80 to 100 | 80 to 100 | 80 to 100 | 80 to 100 | 40 to 59 | 80 to 100
26 | CC(C)(C)C(O)(c1cccnc1)c1ccc(-c2ccc(OCC(F)(F)F)cc2)cn1 (stereo not shown) [Compound 92] | 80 to 100 | 80 to 100 | 80 to 100 | 80 to 100 | 80 to 100 | 

Reference: US10167300B2, “Metalloenzyme inhibitor compounds as fungicides” (priority 2014, dated 2019)
